Laboratory results as given in US11286228B2, “Stilbene derivative and method for preparing same” (Ozchela Inc., priority 2016, dated 2022).
Read-outs that look alike come from different tables or passages of the source.

How the values were obtained:
[1] = target: cyclophilin; experiment: Cis-trans isomerase inhibitory activity (chymotrypsin-coupled Suc-AAPF-pNA cleavage, absorbance 390 nm); format: biochemical
Source text: Chymotrypsin cleaves a trans-type alanine-proline peptide bond. When Suc-AAPF-pNA (a peptide substrate) and chymotrypsin are mixed, the trans-type peptide substrate is cleaved and the cis-type peptide substrate remains. The remaining cis-type peptide substrate is converted into a trans form by a cis-trans isomerase and is then cleaved again by chymotrypsin. When the cis-trans isomerase is present, chymotrypsin is able to cleave a larger amount of trans-type peptide substrate within a predetermined period of time, from which the activity of the cis-trans isomerase may be determined. The amount of the cleaved trans-type peptide substrate is measured using absorbance at 390 nm. Cyclophilin has cis-trans isomerase activity, and accelerates the cleavage of trans-type peptide substrate by chymotrypsin. When the stilbene derivatives of the present invention were treated together with cyclophilin, the cleavage of the peptide substrate by chymotrypsin was not observed to accelerate. Thereby, the stilbene derivatives of the invention can be concluded to inhibit the activity of cyclophilin.

[2] = tested on: mitochondria obtained from hepatocytes; experiment: Inhibitory activity on calcium-induced mitochondrial swelling (absorbance 520 nm)
Source text: Cyclophilin is a key protein for forming permeability transition pores (PTP) in mitochondria. When permeability transition pores are formed, mitochondria swell, whereby the outer membrane thereof ruptures and thus cell death progresses. Such mitochondrial dysfunction causes many diseases including neurodegenerative diseases, cancer, and the like. Cyclosporine, a known cyclophilin inhibitor, is capable of preventing the formation of permeability transition pores to thus suppress mitochondrial swelling.
The mitochondrial swelling test was performed as follows. Specifically, the hepatocytes were disrupted using a Dounce tissue grinder. The disrupted cells were centrifuged at 700×g for 10 min and the supernatant was transferred into a new tube. The supernatant was centrifuged at 12,000×g for 15 min, thereby obtaining mitochondria.
When the extracted mitochondria were added with calcium, they swelled, which may be observed by measuring the absorbance at 520 nm. The stilbene derivatives are effective at inhibiting mitochondrial swelling due to calcium.
The activity of Compounds 1 to 155 of Tables 1 to 10 on inhibiting mitochondrial swelling may be determined based on IC50 values, and may be grouped as follows: […]

[3] = tested on: hepatitis C virus; experiment: Antiviral activity in HCV replicon cells (Renilla luciferase); format: cell-based
Description: The antiviral activity of the stilbene derivatives on hepatitis C virus was measured. The replicon cells that stably replicate the hepatitis C virus genome were attached to a culture plate and cultured in a CO2 incubator at 37° C. for 24 hr. The replicon cells cultured for one day were washed with a PBS solution, treated with the compounds of the present invention, and then cultured for 72 hr. The stilbene derivative-treated replicon cells were washed with a cold PBS solution and added with 20 μL of a cell lysis solution so that the cells were lysed in ice for 20 min. 100 μL of a Renilla luciferase substrate was added thereto, after which the luminescence thereof was measured and thus the amount of the hepatitis C virus genome was estimated. The amount of the hepatitis C virus genome in the stilbene derivative-treated replicon cells according to the present invention relative to the amount of the hepatitis C virus genome in dimethylsulfoxide (DMSO)-treated replicon cells is shown.
Compounds 1 to 155 of Tables 1 to 10 may be grouped as follows based on the antiviral activity (EC50) values: […]

[4] = cyclophilin, chymotrypsin, Suc-AAPF-pNA, read-out: Test Example 1: cis-trans isomerase inhibitory activity (IC50)
[5] = Hepatocyte, calcium-induced swelling of extracted mitochondria, read-out: Test Example 4: inhibiting mitochondrial swelling (IC50)
[6] = Hepatitis C virus, HCV replicon cells, 72 hr, Renilla luciferase, relative to DMSO, read-out: Test Example 3: antiviral activity (EC50)
[7] = calcium-induced swelling of extracted mitochondria, read-out: Test Example 4: inhibiting mitochondrial swelling (IC50)
[8] = HCV replicon cells, 72 hr, Renilla luciferase, relative to DMSO, read-out: Test Example 3: antiviral activity (EC50)
[9] = read-out: Test Example 1: cis-trans isomerase inhibitory activity (IC50) group
[10] = Hepatocyte, read-out: Test Example 4: activity on inhibiting mitochondrial swelling (IC50) group
[11] = Hepatitis C virus, HCV replicon cells, read-out: Test Example 3: antiviral activity (EC50) group
[12] = Hepatitis C virus, 72 h, read-out: Test Example 3: antiviral activity (EC50)

| SMILES | IC50 [1, 4] [µM] | IC50 [2, 5] [µM] | EC50 [3, 6] [µM] | further results |
| --- | --- | --- | --- | --- |
| CN1CCN(c2ccccc2C=C(C#N)c2ccc([N+](=O)[O-])cc2)CC1 [Compound 25] | 0.2 to 2 | 50 to 500 | 5 to 50 | – |
| CCc1ccc(C(C#N)=Cc2ccccc2N(C)C)cc1 [Compound 3] | 0.2 to 2 | – | – | IC50 [2, 7]: 50 to 500 µM; EC50 [3, 8]: 5 to 50 µM |
| Cc1ccc(C(=O)O)c(C=Cc2ccc(CC(C)(C)C)cc2)c1 [Compound 155] | – | – | – | IC50 [1, 9]: 0.02 to 0.2 µM; IC50 [2, 10]: 5 to 50 µM; EC50 [3, 11]: 0.5 to 5 µM |
| CC(C)(C)Cc1ccc(C(C#N)=Cc2ccccc2C(=O)O)cc1 [Compound 54] | ≤ 0.02 | < 5 | < 0.5 | – |
| N#CC(=Cc1ccccc1C(=O)O)c1ccc(Cc2ccccc2)cc1 [Compound 21] | ≤ 0.02 | – | – | IC50 [2, 7]: < 5 µM; EC50 [3, 8]: < 0.5 µM |
| CCCCOC(=O)c1ccccc1C=C(N)c1ccc(CC2CCCC2)cc1 [Compound 109] | 0.02 to 0.2 | 5 to 50 | 0.5 to 5 | – |
| N#CC(=Cc1ccccc1N1CCCCC1)c1ccc([N+](=O)[O-])cc1 [Compound 29] | 0.2 to 2 | 50 to 500 | 5 to 50 | – |
| CCCCOC(=O)c1ccccc1C=Cc1ccc(Cc2ccccc2)cc1 [Compound 81] | 0.02 to 0.2 | 5 to 50 | – | EC50 [3, 12]: 0.5 to 5 µM |
| CCCCOC(=O)c1ccccc1C=C(Br)c1ccc(CC(C)(C)C)cc1C [Compound 114] | ≤ 0.02 | < 5 | < 0.5 | – |
| CC(C)(C)Cc1ccc(C=Cc2c(N)cccc2C(=O)O)cc1 [Compound 151] | – | – | – | IC50 [1, 9]: ≤ 0.02 µM; IC50 [2, 10]: < 5 µM; EC50 [3, 11]: < 0.5 µM |
| COC(=O)c1ccccc1C=Cc1ccc(CC2CCCC2)cc1 [Compound 126] | 0.02 to 0.2 | 5 to 50 | 0.5 to 5 | – |
| N#CC(=Cc1ccccc1C(=O)O)c1ccc(CCC2CCCCC2)cc1 [Compound 60] | ≤ 0.02 | < 5 | < 0.5 | – |
| CCCCOC(=O)c1ccccc1C=C(Br)c1ccc(CC(C)CC)cc1 (stereo not drawn) [Compound 122] | 0.02 to 0.2 | 5 to 50 | 0.5 to 5 | – |
| N#CC(=Cc1ccccc1CCCc1ccccc1)c1ccc([N+](=O)[O-])cc1 [Compound 42] | 0.2 to 2 | 50 to 500 | 5 to 50 | – |
| CC(C)(C)Cc1ccc(C(Cl)=Cc2ccccc2C(=O)OC2CCCCC2)cc1 [Compound 121] | ≤ 0.02 | < 5 | < 0.5 | – |
| CC(C)(C)Cc1ccc(C=Cc2ccccc2C(=O)OCC2CCCCC2)cc1 [Compound 74] | ≤ 0.02 | < 5 | < 0.5 | – |
| N#CC(=Cc1ccccc1CCc1ccc(Cl)cc1)c1ccc([N+](=O)[O-])cc1 [Compound 48] | 0.02 to 0.2 | 5 to 50 | – | EC50 [3, 12]: 0.5 to 5 µM |
| CC(C)(C)Cc1ccc(C=Cc2ccccc2C(N)=O)cc1 [Compound 141] | ≤ 0.02 | < 5 | < 0.5 | – |
| CCOc1ccc(C(C#N)=Cc2ccccc2C(=O)O)cc1 [Compound 17] | 0.2 to 2 | – | – | IC50 [2, 7]: 50 to 500 µM; EC50 [3, 8]: 5 to 50 µM |

| SMILES | IC50 [1, 4] [µM] | IC50 [2, 5] [µM] | EC50 [3, 6] [µM] | further results |
| --- | --- | --- | --- | --- |
| CCCCOC(=O)c1ccccc1C=C(C)c1ccc(CC2CCCC2)cc1 [Compound 95] | 0.02 to 0.2 | 5 to 50 | 0.5 to 5 | – |
| CC(C)CCOc1cccc(C=C(C#N)c2ccc([N+](=O)[O-])cc2)c1 [Compound 32] | 0.2 to 2 | 50 to 500 | 5 to 50 | – |
| CC(=Cc1ccccc1C(=O)OCc1ccccc1)c1ccc(CC(C)(C)C)cc1 [Compound 92] | 0.02 to 0.2 | 5 to 50 | 0.5 to 5 | – |
| CCCCOC(=O)c1cc2ccccc2cc1C=Cc1ccc(CC(C)(C)C)cc1 [Compound 142] | 0.02 to 0.2 | 5 to 50 | 0.5 to 5 | – |
| Cc1ccc(C(C#N)=Cc2ccccc2N(C)C)cc1 [Compound 1] | 0.2 to 2 | 50 to 500 | 5 to 50 | – |
| CC(C)(C)Cc1ccc(C=Cc2ccccc2C(=O)O)cc1 [Compound 134] | ≤ 0.02 | < 5 | < 0.5 | – |
| CCCCOC(=O)c1c(C=C(F)c2ccc(CC(C)(C)C)cc2)ccc(C)c1C [Compound 116] | ≤ 0.02 | < 5 | < 0.5 | – |
| CCCCOC(=O)c1ccccc1C=Cc1ccc(CC2CCCC2)cc1 [Compound 79] | 0.02 to 0.2 | 5 to 50 | 0.5 to 5 | – |
| CCCCc1ccc(C(C#N)=Cc2ccccc2C(=O)O)cc1 [Compound 8] | 0.02 to 0.2 | – | – | IC50 [2, 7]: 5 to 50 µM; EC50 [3, 8]: 0.5 to 5 µM |
| Cc1cccc(C=Cc2ccc(CC(C)(C)C)cc2)c1C(=O)O [Compound 139] | ≤ 0.02 | < 5 | < 0.5 | – |
| CCCCOC(=O)c1cc(C)ccc1C=Cc1ccc(CC(C)(C)C)cc1 [Compound 69] | 0.02 to 0.2 | 5 to 50 | 0.5 to 5 | – |
| CC(=Cc1ccccc1C(=O)OCC1CCCCN1)c1ccc(CC(C)(C)C)cc1 (stereo not drawn) [Compound 91] | 0.02 to 0.2 | 5 to 50 | 0.5 to 5 | – |
| CC(C)(C)Cc1ccc(C=Cc2cc(O)ccc2C(=O)O)cc1 [Compound 153] | – | – | – | IC50 [1, 9]: 0.02 to 0.2 µM; IC50 ([2]; read-out: Test Example 4: activity on inhibiting mitochondrial swelling (IC50) group): 5 to 50 µM; EC50 ([3]; HCV replicon cells, read-out: Test Example 3: antiviral activity (EC50) group): 0.5 to 5 µM |
| CC(C)OC(=O)c1ccccc1C=Cc1ccc(CC(C)(C)C)cc1 [Compound 73] | ≤ 0.02 | < 5 | < 0.5 | – |
| CCCCOC(=O)c1ccccc1C=Cc1ccc(CC(C)(C)C)nc1 [Compound 144] | 0.02 to 0.2 | 5 to 50 | 0.5 to 5 | – |
| Cc1ccc(C(C#N)=Cc2ccccc2C(=O)O)cc1C [Compound 13] | 0.2 to 2 | – | – | IC50 [2, 7]: 50 to 500 µM; EC50 [3, 8]: 5 to 50 µM |
| N#CC(=Cc1ccccc1N)c1ccc([N+](=O)[O-])cc1 [Compound 24] | 0.2 to 2 | 50 to 500 | 5 to 50 | – |
| CC(C)(C)c1ccc(C(C#N)=Cc2ccccc2C(=O)O)cc1 [Compound 10] | 0.02 to 0.2 | 5 to 50 | 0.5 to 5 | – |
| CCCCOC(=O)c1ccccc1C=Cc1ccc(CC(C)(C)C)cc1CC [Compound 68] | 0.02 to 0.2 | 5 to 50 | 0.5 to 5 | – |
